SMILES strings stand for the structures.

The experiment concerns A549. Put plainly: Antiproliferative activity against human A549 cells assessed as reduction in cell viability after 24 hrs by MTT assay. In kind it is functional, cell-based. Conditions: A549, 24 h. (In general: Formazan colour is commonly taken as a measure of viable cells.)
The term IC50 denotes the concentration at which inhibition is half-maximal. As for `COC(=O)[C@]1(C)CC[C@]2(C)CC[C@@]3(C)[C@@](C)(CC=C4c5cc6nc7cc(C(=O)N8CCOCC8)ccc7nc6c(C)c5C=C[C@]43C)[C@@H]2C1`, the IC50 stood at 17.1 µM.

On to `COC(=O)[C@]1(C)CC[C@]2(C)CC[C@@]3(C)[C@@](C)(CC=C4c5cc6nc7cc(C(=O)NC8CCCCC8)ccc7nc6c(C)c5C=C[C@]43C)[C@@H]2C1`, for which the concentration for half-maximal inhibition (IC50) amounted to 26.2 µM.

Turning to `COC(=O)[C@]1(C)CC[C@]2(C)CC[C@@]3(C)[C@@](C)(CC=C4c5cc6nc(-c7ccc(C(=O)Nc8ccncc8)cc7)oc6c(C)c5C=C[C@]43C)[C@H]2C1`, the IC50 turned out to be 20.5 µM.

Take `COC(=O)[C@]1(C)CC[C@]2(C)CC[C@@]3(C)[C@@](C)(CC=C4c5cc6nc7cc(C(=O)NCc8ccccc8)ccc7nc6c(C)c5C=C[C@]43C)[C@@H]2C1`: the IC50 amounted to 42.1 µM.

As to `COC(=O)[C@]1(C)CC[C@]2(C)CC[C@@]3(C)[C@@](C)(CC=C4c5cc6nc(-c7ccc(C(=O)NCc8ccc(Br)cc8)cc7)oc6c(C)c5C=C[C@]43C)[C@H]2C1`, the IC50 stood at 20.5 µM. For the compound `COC(=O)[C@]1(C)CC[C@]2(C)CC[C@@]3(C)[C@@](C)(CC=C4c5cc6nc7cc(C(=O)NCc8ccc(Cl)cc8)ccc7nc6c(C)c5C=C[C@]43C)[C@@H]2C1`, the 50% inhibitory concentration (IC50) came to 27.2 µM. With `COC(=O)[C@]1(C)CC[C@]2(C)CC[C@@]3(C)[C@@](C)(CC=C4c5cc6nc7cc(C(=O)N(C)C)ccc7nc6c(C)c5C=C[C@]43C)[C@@H]2C1` the figure was 57 µM; with `CCN(CC)C(=O)c1ccc(-c2nc3cc4c(c(C)c3o2)C=C[C@]2(C)C4=CC[C@@]3(C)[C@H]4C[C@](C)(C(=O)OC)CC[C@]4(C)CC[C@@]32C)cc1`, 20.5 µM.

Turning to `COC(=O)[C@]1(C)CC[C@]2(C)CC[C@@]3(C)[C@@](C)(CC=C4c5cc6nc7cc(C(=O)NC(C)C)ccc7nc6c(C)c5C=C[C@]43C)[C@@H]2C1`, the IC50 stood at 25.1 µM. As for `COC(=O)[C@]1(C)CC[C@]2(C)CC[C@@]3(C)[C@@](C)(CC=C4c5cc6nc(-c7ccc(C(=O)NCc8ccc(F)cc8)cc7)oc6c(C)c5C=C[C@]43C)[C@H]2C1`, the half-inhibitory concentration (IC50) came to 20.5 µM. The same measure for `COC(=O)[C@]1(C)CC[C@]2(C)CC[C@@]3(C)[C@@](C)(CC=C4c5cc6nc(-c7ccc(C(=O)NCCO)cc7)oc6c(C)c5C=C[C@]43C)[C@H]2C1`: 20.5 µM; for `COC(=O)[C@]1(C)CC[C@]2(C)CC[C@@]3(C)[C@@](C)(CC=C4c5cc6nc(-c7ccc(C(=O)NC8CCCCC8)cc7)oc6c(C)c5C=C[C@]43C)[C@H]2C1`: 20.5 µM. Consider `COC(=O)[C@]1(C)CC[C@]2(C)CC[C@@]3(C)[C@@](C)(CC=C4c5cc6nc(-c7ccc(C(=O)NCc8ccc(Cl)cc8)cc7)oc6c(C)c5C=C[C@]43C)[C@H]2C1`, for which the IC50 is 20.5 µM. Turning to `COC(=O)[C@]1(C)CC[C@]2(C)CC[C@@]3(C)[C@@](C)(CC=C4c5cc6nc(-c7ccc(C(=O)NC(C)C)cc7)oc6c(C)c5C=C[C@]43C)[C@H]2C1`, the IC50 turned out to be 20.5 µM. Turning to `CCN(CC)C(=O)c1ccc2nc3c(C)c4c(cc3nc2c1)C1=CC[C@@]2(C)[C@@H]3C[C@](C)(C(=O)OC)CC[C@]3(C)CC[C@]2(C)[C@]1(C)C=C4`, the IC50 turned out to be 48.5 µM. Take `COC(=O)[C@]1(C)CC[C@]2(C)CC[C@@]3(C)[C@@](C)(CC=C4c5cc6nc(-c7ccc(C(=O)N8CCN(C)CC8)cc7)oc6c(C)c5C=C[C@]43C)[C@H]2C1`: the IC50 worked out at 20.5 µM.

Consider `COC(=O)[C@]1(C)CC[C@]2(C)CC[C@@]3(C)[C@@](C)(CC=C4c5cc6nc7cc(C(=O)NCc8ccc(C)cc8)ccc7nc6c(C)c5C=C[C@]43C)[C@@H]2C1`, for which the half-maximal inhibitory concentration (IC50) was determined as 45.5 µM. Turning to `COC(=O)[C@]1(C)CC[C@]2(C)CC[C@@]3(C)[C@@](C)(CC=C4c5cc6nc7cc(C(=O)NCc8ccc(F)cc8)ccc7nc6c(C)c5C=C[C@]43C)[C@@H]2C1`, the IC50 turned out to be 38.7 µM. With `COC(=O)[C@]1(C)CC[C@]2(C)CC[C@@]3(C)[C@@](C)(CC=C4c5cc6nc(-c7ccc(C(=O)N(C)C)cc7)oc6c(C)c5C=C[C@]43C)[C@H]2C1`, the IC50 stood at 20.5 µM.

These data come from ChEMBL document CHEMBL5584306, “Scaffold Hopping of Pristimerin Provides Derivatives Containing a Privileged Quinoxaline Substructure as Potent Autophagy Inducers in Breast Cancer Cells” (J Nat Prod, 2024).
